Legend:
human RORγt = target: T1, human RORγt (Homo sapiens, UniProt P51449); assay: RORE Luciferase/RORγt transactivation assay; format: cell-based; conditions: COS-7 cells transfected with human IL-17 promoter luciferase reporter and RORγt plasmid; 20 h with compound; read-out: IC50, RORγt activity inhibition
T1 construct: the full-length cDNA of human RORγt; expressed in transfected cells; host or cells: COS-7 (monkey kidney)
T1 sequence (P51449 1-497 isoform P51449-2): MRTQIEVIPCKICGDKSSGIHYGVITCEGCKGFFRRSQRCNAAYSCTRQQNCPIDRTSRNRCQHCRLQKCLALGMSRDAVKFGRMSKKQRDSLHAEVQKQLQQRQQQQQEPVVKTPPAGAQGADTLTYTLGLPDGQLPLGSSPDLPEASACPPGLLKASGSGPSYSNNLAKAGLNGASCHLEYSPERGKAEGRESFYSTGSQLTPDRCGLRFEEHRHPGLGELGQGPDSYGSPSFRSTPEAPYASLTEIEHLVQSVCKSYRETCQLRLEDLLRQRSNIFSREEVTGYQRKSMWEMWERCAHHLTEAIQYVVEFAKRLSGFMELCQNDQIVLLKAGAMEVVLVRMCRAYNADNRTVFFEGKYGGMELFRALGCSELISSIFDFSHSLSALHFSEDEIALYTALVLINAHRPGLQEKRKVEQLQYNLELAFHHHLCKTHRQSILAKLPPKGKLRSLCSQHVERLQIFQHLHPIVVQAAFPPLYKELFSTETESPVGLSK
Summary of the method: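 Transactivation read-out: luminescence (Steady-Glo, 30 min at room temperature) from COS-7 cells carrying a RORγt expression plasmid plus a 4.3 kb IL-17 promoter luciferase reporter. Compound exposure was in serum-free DMEM with 0.3% DMSO final. Reported values are IC50 (μM) and Emax (%).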

MPO activity = MPO activity in ear skin homogenates of the IMQ induced psoriasis study; format: in vivo, C57BL/6 female mice; conditions: 30 mpk oral, in comparison with IMQ-vehicle group
Method: 8-10 weeks C57BL/6 female mice received a daily topical dose of 62.5 mg/mouse IMQ cream (Aldara® cream 5%; 3M pharmaceuticals, Sweden) on the shaved back and the right ear for 7 consecutive days. Control mice were treated similarly with a control vehicle cream (Vaseline). Test compound (Cpd 24) was orally administered daily from day 0 to day 7 at 3 mg/mL (30 mg/kg). Test compound was given 8 hours before IMQ application. Mice were killed at day 7, 4 h after the last test compound treatment to analyse skin inflammation parameters.
Ear skin tissue were homogenized in PBS containing a protease inhibitor cocktail (P8340, Sigma-Aldrich) by Ultra Turrax, centrifuged and the supernatant was discarded. The pellet was resuspended in 0.5 mL PBS containing 0.5% hexadecyltrimethyl ammonium bromide (HTAB) and 5 mM ethylene-diamine tetra-acetic acid (EDTA). Following centrifugation, 100 μL of supernatants were placed in test tubes with 200 μL PBS-HTAB-EDTA, 1 mL Hanks' balanced salt solution (HBSS), 100 μL of o-dianisidine dihydrochloride (1.25 mg/mL), and 100 μL H2O2 0.05%. […] The MPO activity was determined as absorbance at 460 nm in comparison with medium.
Statistical evaluation of differences between the experimental groups was determined by using two-way Anova followed by a Bonferroni post test. *** p<0.001, IMQ-Vehicle compared with treatment.

[1] = target: T2, RORγt ligand-binding domain (RORγt-LBD) (Homo sapiens, UniProt P51449); assay: Time-resolved FRET (TR-FRET) RORγt coactivator assay; conditions: GST-RORγ-LBD, biotinylated RIP140 peptide, 2 hours at room temperature
T2 construct: 20 nM recombinantly expressed RORγ-LBD fused to GST
T2 sequence (P51449 269-508 limits assumed): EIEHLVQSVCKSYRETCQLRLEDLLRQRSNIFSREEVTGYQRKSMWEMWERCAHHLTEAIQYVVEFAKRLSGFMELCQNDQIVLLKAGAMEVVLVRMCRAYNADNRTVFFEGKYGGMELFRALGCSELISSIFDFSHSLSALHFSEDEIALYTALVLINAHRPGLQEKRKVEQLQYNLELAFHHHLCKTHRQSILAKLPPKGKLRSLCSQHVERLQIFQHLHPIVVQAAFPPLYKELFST
Summary of the method: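 GST-tagged RORγt-LBD (20 nM) with 30 nM biotinylated RIP140-derived peptide, streptavidin-terbium and d2 anti-GST in CHAPS buffer (1 mM DTT, 2 mM EDTA, 0.1% BSA), 1% DMSO. Compounds at 0.3 nM–30 μM final, equilibrated 2 h, room temperature, dark. Coactivator displacement lowers the TR-FRET signal; IC50 (μM) and Emax (%) reported.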

Cc1ccc(C(NC(=O)Cc2ccc3c(c2)CC(=O)N3)c2ccc(C)o2)c(N2CCCCC2)c1 (stereo not drawn) [Cpd. 24, N-{[4-methyl-2-(piperidin-1-yl)phenyl](5-methylfuran-2-yl)methyl}-2-(2-oxo-2,3-dihydro-1H-indol-5-yl)acetamide]
IC50 (human RORγt): 10 to 100 nM
MPO activity in ear homogenates (MPO activity): reduced MPO activity
IC50 [1]: < 10 nM
